Measured values taken from patent US6933261B2, “2,4,5-Trisubstituted phenylketoenols” (Bayer Aktiengesellschaft, priority 1995, dated 2005).

Legend:
Assay type in all cases: in vivo
[1] = test system: caterpillars of the diamond-back moth (Plutella maculipennis); assay: Plutella test; settings: after 7 days, active compound concentration 0.1%, dipped cabbage leaves
Method: (§1) Plutella Test • Solvent: 7 parts by weight of dimethylformamide • Emulsifier: 1 part by weight of alkylaryl polyglycol ether To produce a suitable preparation of active compound, 1 part by weight of active compound is mixed with the stated amount of solvent and the stated amount of emulsifier, and the concentrate is diluted with water to the desired concentration. Cabbage leaves (Brassica oleracea) are treated by being dipped into the preparation of active compound of the desired concentration and are infested with caterpillars of the diamond-back moth (Plutella maculipennis) while the leaves are still moist. After the specified periods of time, the destruction in % is determined. 100% means that all the caterpillars have been killed; 0% means that none of the caterpillars have been killed.

[2] = test system: caterpillars of the owlet moth (Spodoptera frugiperda); assay: Spodoptera test; settings: after 7 days, active compound concentration 0.1%, dipped cabbage leaves
Method: as §1, with “Spodoptera” for “Plutella”, “owlet” for “diamond-back”, “(Spodoptera frugiperda)” for “(Plutella maculipennis)”

[3] = test system: rice green leafhopper (Nephotettix cincticeps); assay: Nephotettix test; settings: after 6 days, active compound concentration 0.1%, dipped rice seedlings
Method: as §1, with “Nephotettix” for “Plutella”, “Rice seedlings (Oryza sativa)” for “Cabbage leaves (Brassica oleracea)”, “rice green leafhopper (Nephotettix cincticeps)” for “diamond-back moth (Plutella maculipennis)”, “seedlings” for “leaves”

[4] = test system: peach aphid (Myzus persicae); assay: Myzus test; settings: after 6 days, active compound concentration 0.1%, dipped cabbage leaves
Method: Myzus Test • Solvent: 7 parts by weight of dimethylformamide • Emulsifier: 1 part by weight of alkylaryl polyglycol ether To produce a suitable preparation of active compound, 1 part by weight of active compound is mixed with the stated amount of solvent and the stated amount of emulsifier, and the concentrate is diluted with water to the desired concentration. Cabbage leaves (Brassica oleracea) which are heavily infested by the peach aphid (Myzus persicae) are treated by being dipped into the preparation of the active compound of the desired concentration. After the specified periods of time, the destruction in % is determined. 100% means that all the caterpillars have been killed; 0% means that none of the caterpillars have been killed.

[5] = test system: All larval stages of Lucilia cuprina (OP-resistant); assay: Test with fly larvae/development-inhibiting action; settings: active compound concentration 1000 ppm, read-out: action (larvicidal / development-inhibiting)
Method: Test with Fly Larvae/Development-Inhibiting Action
• Test animals: All larval stages of Lucilia cuprina (OP-resistant) [pupae and adults (without contact with the active compound)] • Solvent: 35 parts by weight of ethylene glycol monomethyl ether 35 parts by weight of nonylphenol polyglycol ether
To produce a suitable formulation, 3 parts by weight of active compound are mixed with seven parts of the abovementioned solvent/emulsifier mixture and the emulsion concentrate thus obtained is diluted with water to the particular desired concentration.
30 to 50 larvae per concentration are introduced onto horse-meat (1 cm^3), in glass tubes, onto which 500 μl of the dilution to be tested are pipetted. The glass tubes are placed in plastic beakers, the base of which is covered with beach sand, and are stored in a climatically controlled room (26° C.±1.5° C., 70% relative humidity±10%). The action is checked after 24 hours and 48 hours (larvicidal action). After emergence of the larvae (about 72 hours), the glass tubes are removed and perforated plastic lids are placed on the beakers. After 1½ times the development period (hatching of the control flies), the flies which have hatched and the pupae/pupae cases are counted. […]

[6] = test system: Boophilus microplus resistant/SP-resistant Parkhurst strain, adult satiated females; assay: Test with Boophilus microplus resistant/SP-resistant Parkhurst strain; settings: 20 μg per animal, injected into the abdomen
Method: Test with Boophilus microplus Resistant/SP-resistant Parkhurst Strain
• Test animals: Adult satiated females • Solvent: Dimethyl sulphoxide
20 mg of active compound are dissolved in 1 ml of dimethyl sulphoxide, and lower concentrations are prepared by dilution in the same solvent.
The test is carried out as a 5-fold determination. 1 μl of the solutions is injected into the abdomen and the animals are transferred to dishes and kept in a climatically controlled room. The action is determined via the inhibition of oviposition. 100% means that no tick has laid.

Alopecurus myosuroids = assay: Pre-emergence test; settings: 500 g/ha, rated after three weeks vs untreated control
Method: (§2) • Solvent: 5 parts by weight of acetone • Emulsifier: 1 part by weight of alkylaryl polyglycol ether
(§3) To produce a suitable preparation of active compound, 1 part by weight of active compound is mixed with the stated amount of solvent, the stated amount of emulsifier is added and the concentrate is diluted with water to the desired concentration.
(§4) Seeds of the test plants are sown in normal soil and, after 24 hours, watered with the preparation of the active compound. It is expedient to keep constant the amount of water per unit area. The concentration of the active compound in the preparation is of no importance, only the amount of active compound applied per unit area being decisive.
(§5) After three weeks, the degree of damage to the plants is rated in % damage in comparison to the development of the untreated control.
(§6) The figures denote: • 0%=no action (like untreated control) • 100%=total destruction

Avena fatua = assay: Pre-emergence test; settings: 500 g/ha, rated after three weeks vs untreated control
Method: as §2, §3, §4, §5, §6

Setaria viridis = assay: Pre-emergence test; settings: 500 g/ha, rated after three weeks vs untreated control
Method: as §2, §3, §4, §5, §6

Beta vulgaris = assay: Pre-emergence test (crop tolerance); settings: 500 g/ha
Method: as §2, §3, §4, §5, §6

[7] = test system: mustard beetle larvae (Phaedon cochleariae); assay: Phaedon larvae test; settings: after 7 days, active concentration 0.1%, dipped cabbage leaves
Method: Phaedon Larvae Test • Solvent: 7 parts by weight of dimethylformamide • Emulsifier: 1 part by weight of alkylaryl polyglycol ether To produce a suitable preparation of active compound, 1 part by weight of active compound is mixed with the stated amount of solvent and the stated amount of emulsifier, and the concentrate is diluted with water to the desired concentration. Cabbage leaves (Brassica oleracea) are treated by being dipped into the preparation of the active compound of the desired concentration and are infested with mustard beetle larvae (Phaedon cochleariae), as long as the leaves are still moist. After the specified periods of time, the destruction in % is determined. 100% means that all the beetle larvae have been killed; 0% means that none of the beetle larvae have been killed.

SMILES	destruction [1] [%]	destruction [2] [%]	destruction [3] [%]	destruction [4] [%]	also measured
Cc1cc(C)c(C2=C(OC(=O)C(C)C)C3(CCC(C)CC3)NC2=O)cc1C (single isomer, unassigned) [Example I-1-b-2]	100	100	100	100	
COC1CCC2(CC1)NC(=O)C(c1cc(C)c(C)cc1C)=C2OC(=O)C(C)C (single isomer, unassigned) [Example I-1-b-3]			100	100	
COC1CCC2(CC1)NC(=O)C(c1cc(C)c(C)cc1C)=C2OC(=O)OCC(C)C (single isomer, unassigned) [Example I-1-c-2]			100	100	
COC1CCC2(CC1)NC(=O)C(c1cc(C)c(C)cc1C)=C2OC(=O)OCC(C)C (single isomer, unassigned) [Example I-1-c-3]			100		
Cc1cc(C)c(C2=C(O)C3(CCC(C)CC3)NC2=O)cc1C (centres unmarked) [Example I-1-a-1]	100	100	100		
CC(=O)OC1=C(c2cc(C)c(C)cc2C)C(=O)NC12CCC(C)CC2 (centres unmarked) [Example I-1-b-1]			100		
CCOC(=O)OC1=C(c2cc(C)c(C)cc2C)C(=O)NC12CCC(C)CC2 (centres unmarked) [Example I-1-c-1]	100		100		
Cc1cc(C)c(C2=C(O)C3(CCCCC3)OC2=O)cc1C [Example I-2-a-1]				100	
Cc1cc(C)c(C2=C(O)C3(CCC(C)CC3)OC2=O)cc1C (centres unmarked) [Example I-2-a-2]			100		
COC1CCC2(CC1)OC(=O)C(c1cc(C)c(C)cc1C)=C2O (centres unmarked) [Example I-2-a-3]			100		
COC1CCC2(CC1)OC(=O)C(c1cc(C)c(C)cc1C)=C2OC(=O)C(C)C (centres unmarked) [Example I-2-b-4]			100	100	
COC1CCC2(CC1)OC(=O)C(c1cc(C)c(C)cc1C)=C2OC(=O)C(C)(C)C (centres unmarked) [Example I-2-b-5]			100		
Cc1cc(C)c(-c2c(O)c3c(oc2=O)C(C)(C)OC3(C)C)cc1C [Example I-4-a-1]	100	100			inhibition at 1000 ppm [5]: 100%; action (inhibition of oviposition) [6]: 100%
Cc1cc(C)c(-c2c(O)c(C)c(-c3ccc(F)cc3)oc2=O)cc1C [Example I-4-a-3]	100	100	100		damage (Alopecurus myosuroids): 90%; damage (Avena fatua): 96%; damage (Setaria viridis): 95%; tolerance by crop plant (Beta vulgaris): good tolerance
Cc1cc(C)c(-c2c(O)c(C)c(-c3ccccn3)oc2=O)cc1C [Example I-4-a-4]	100	100	100	100	destruction [7]: 100%
CC(=O)Oc1c2c(oc(=O)c1-c1cc(C)c(C)cc1C)C(C)(C)OC2(C)C [Example I-4-b-1]	100	100			destruction [7]: 100%; action (inhibition of oviposition) [6]: 100%
